Assay results: patent publication US9856221B2, “Salt of ivabradine and process for the preparation thereof” (LES LABORATOIRES SERVIER, priority 2014, dated 2018)
Values joined by “and” are separate entries in the source; they are usually repeats but may differ in a detail not shown here. Equal values may be shown once. Where a name gives a salt, the structure may show the parent alone.

What was measured:
[1] = In vitro release of ivabradine hydrochloride (immediate-release formulation); assay type: physicochemical
[2] = Dissolution test (paddle apparatus, Ph. Eur. 2.9.3), release of active ingredient; assay type: physicochemical; details: for % of active ingredient released (individual units B1-B6) / % of active ingredient released, Mean: 0.01 N HCl pH~2.1, 37°C, paddle 50 rpm; for % of active ingredient released (individual units B1-B6): 500 mL; for % of active ingredient released, Mean: mean of 6 units
Experimental: Dissolution Test Operating Conditions for Dissolution Paddle dissolution apparatus described in the European pharmacopoeia (2.9.3) Dissolution medium: 0.01 N hydrochloric acid (pH˜2.1) degassed Temperature of the medium: 37° C.±0.5° C. Volume of the medium: 500 mL±5 mL Speed of rotation of the blades: 50 rpm±2 rpm Standard sampling time: 0, 15, 30 and 45 min Added sampling times: 1, 2, 4, 6, 8, 12 and 16 h Volume removed: 1 mL Replacement of the volume removed: no Number of units tested: 6 Number of units per flask: 1

Structure (SMILES): COc1cc2c(cc1OC)CC(=O)N(CCCN(C)C[C@H]1Cc3cc(OC)c(OC)cc31)CC2 [ivabradine hydrochloride, 3-{3-[{[(7S)-3,4-dimethoxybicyclo[4.2.0]octa-1,3,5-trien-7-yl]methyl}-(methyl)amino]propyl}-7,8-dimethoxy-1,3,4,5-tetrahydro-2H-3-benzazepin-2-one]
- time in which all the salt is released in vitro [1]: 15 min

Structure (SMILES): COc1cc2c(cc1OC)CC(=O)N(CCCN(C)C[C@H]1Cc3cc(OC)c(OC)cc31)CC2 [ivabradine hemipamoate]
- ivabradine hemipamoate released ([2]; after approximately 6 hours, in vitro dissolution test): 80%
- Derivative (of % of active ingredient released over time) ([2]; time 0 hour): 0 %/min
- % of active ingredient released (individual units B1-B6) ([2]; time 0 hour): 0%
- % of active ingredient released, Mean ([2]; time 0 hour): 0%
- Derivative (of % of active ingredient released over time) ([2]; time 0.25 hour): 0.79 %/min
- % of active ingredient released (individual units B1-B6) ([2]; time 0.25 hour): 12% (3×) and 11% (2×) and 13%
- % of active ingredient released, Mean ([2]; time 0.25 hour): 12%
- Derivative (of % of active ingredient released over time) ([2]; time 0.5 hour): 0.4 %/min
- % of active ingredient released (individual units B1-B6) ([2]; time 0.5 hour): 18% (2×) and 17% (2×) and 20% and 16%
- % of active ingredient released, Mean ([2]; time 0.5 hour): 18%
- Derivative (of % of active ingredient released over time) ([2]; time 0.75 hour): 0.26 %/min
- % of active ingredient released (individual units B1-B6) ([2]; time 0.75 hour): 21% (2×) and 22% (2×) and 24% and 20%
- % of active ingredient released, Mean ([2]; time 0.75 hour): 22%
- Derivative (of % of active ingredient released over time) ([2]; time 1 hour): 0.2 %/min
- % of active ingredient released (individual units B1-B6) ([2]; time 1 hour): 24% and 25% and 26% and 28% and 23% (2×)
- % of active ingredient released, Mean ([2]; time 1 hour): 25%
- Derivative (of % of active ingredient released over time) ([2]; time 2 hour): 0.23 %/min
- % of active ingredient released (individual units B1-B6) ([2]; time 2 hour): 38% (2×) and 40% (2×) and 43% and 34%
- % of active ingredient released, Mean ([2]; time 2 hour): 39%
- Derivative (of % of active ingredient released over time) ([2]; time 4 hour): 0.25 %/min
- % of active ingredient released (individual units B1-B6) ([2]; time 4 hour): 64% and 70% (2×) and 71% and 72% and 66%
- % of active ingredient released, Mean ([2]; time 4 hour): 69%
- Derivative (of % of active ingredient released over time) ([2]; time 6 hour): 0.15 %/min
- % of active ingredient released (individual units B1-B6) ([2]; time 6 hour): 81% and 89% and 88% and 85% and 91% and 84%
- % of active ingredient released, Mean ([2]; time 6 hour): 86%
- Derivative (of % of active ingredient released over time) ([2]; time 8 hour): 0.07 %/min
- % of active ingredient released (individual units B1-B6) ([2]; time 8 hour): 89% and 99% and 96% and 94% and 101% and 93%
- % of active ingredient released, Mean ([2]; time 8 hour): 95%
- Derivative (of % of active ingredient released over time) ([2]; time 12 hour): 0.03 %/min
- % of active ingredient released (individual units B1-B6) ([2]; time 12 hour): 96% and 109% and 102% and 103% and 110% and 101%
- % of active ingredient released, Mean ([2]; time 12 hour): 104%
- Derivative (of % of active ingredient released over time) ([2]; time 16 hour): 0.01 %/min
- % of active ingredient released (individual units B1-B6) ([2]; time 16 hour): 98% and 114% (2×) and 104% and 106% and 105%
- % of active ingredient released, Mean ([2]; time 16 hour): 107%
